Assays:
[1] = test system: recombinant human anti-SARS-CoV antibody 03-018; type: binding; parameters: Binding of antibody 03-018 to linear peptides of the N protein of SARS-CoV Urbani / Binding of antibody 03-018 to looped/cyclic peptides of the N protein of SARS-CoV Urbani: unit not given here
[2] = test system: rabbit serum obtained by immunizing a rabbit with the SARS-CoV strain Frankfurt 1; type: binding; parameters: Binding of a rabbit serum to linear peptides / Binding of a rabbit serum to looped peptides / Rabbit serum linear peptides / Rabbit serum looped peptides / Binding of a rabbit serum to linear peptides of protein N of SARS-CoV Urbani (Rabbit serum linear peptides) / Binding of a rabbit serum to looped/cyclic peptides of protein N of SARS-CoV Urbani (Rabbit serum looped peptides): unit not given here
[3] = test system: antibodies in sera from SARS patients (sera 1a, 1b, 2, 6, 37, 62, London, SARS-yellow, SARS-green); type: binding, human; parameters: Binding of serum 6 to linear peptides of protein X1 of SARS-CoV Urbani / Binding of serum 37 to linear peptides of protein X1 of SARS-CoV Urbani / Binding of serum 6 to looped/cyclic peptide (PEPSCAN-ELISA) / Binding of serum 37 to looped/cyclic peptide (PEPSCAN-ELISA) / Binding of serum 37 to looped/cyclic peptides of protein X1 of SARS-CoV Urbani / Binding of serum 6 to linear peptides of protein X2 / Binding of serum 37 to linear peptides of protein X2 / Binding of serum 37 to looped/cyclic peptides of protein X2 of SARS-CoV Urbani / Binding of serum 6 to linear peptides of protein M of SARS-CoV Urbani / Binding of serum 37 to linear peptides of protein M of SARS-CoV Urbani / Binding of serum 6 to looped/cyclic peptides of protein M of SARS-CoV Urbani / Binding of serum 37 to looped/cyclic peptides of protein M of SARS-CoV Urbani / Binding of serum 6 to linear peptides of protein X3 of SARS-CoV Urbani / Binding of serum 37 to linear peptides of protein X3 of SARS-CoV Urbani / Binding of serum 37 to looped/cyclic peptides of protein X3 of SARS-CoV Urbani / Binding of serum 6 to linear peptides of protein X4 of SARS-CoV Urbani / Binding of serum 37 to linear peptides of protein X4 of SARS-CoV Urbani / Binding of serum 37 to looped/cyclic peptides of protein X4 of SARS-CoV Urbani / Binding of serum 6 to linear peptides of protein X5 of SARS-CoV Urbani / Binding of serum 37 to linear peptides of protein X5 of SARS-CoV Urbani / Binding of serum 37 to looped/cyclic peptides of protein X5 of SARS-CoV Urbani / Binding of serum 6 to linear peptides of protein N of SARS-CoV Urbani / Binding of serum 37 to linear peptides of protein N of SARS-CoV Urbani / Binding of serum 6 to linear peptide (PEPSCAN-ELISA) / Binding of serum 1a to looped/cyclic peptides of protein N of SARS-CoV Urbani / Binding of serum 1b to looped/cyclic peptides of protein N of SARS-CoV Urbani / Binding of serum 2 to looped/cyclic peptides of protein N of SARS-CoV Urbani / Binding of serum 6 to looped/cyclic peptides of protein N of SARS-CoV Urbani / Binding of serum 37 to looped/cyclic peptides of protein N of SARS-CoV Urbani / Binding of serum 62 to looped/cyclic peptides of protein N of SARS-CoV Urbani / Binding of serum London to looped/cyclic peptides of protein N of SARS-CoV Urbani / Binding of serum SARS-green to looped/cyclic peptides of protein N of SARS-CoV Urbani: unit not given here
[4] = test system: control sera (pooled serum of ten healthy LUMC hospital workers; commercial negative donor pooled serum from the Dutch bloodbank); type: binding, human; parameters: Binding of Control serum LUMC to linear peptides / Binding of Control serum Blood-bank to linear peptides / Binding of Control serum LUMC to looped peptides / Binding of Control Serum Blood-Bank to Looped peptides / Binding of Control serum LUMC to linear peptides of the protein M of SARS-CoV Urbani / Binding of Control serum Blood-bank to linear peptides of the protein M of SARS-CoV Urbani / Binding of Control serum LUMC to looped peptides of the protein M of SARS-CoV Urbani / Binding of Control Serum Blood-Bank to Looped peptides of the protein M of SARS-CoV Urbani: unit not given here

Sequence	Binding of antibody 03-018 to linear peptides of the N protein of SARS-CoV Urbani [1]	Binding of antibody 03-018 to looped/cyclic peptides of the N protein of SARS-CoV Urbani [1]	Binding of a rabbit serum to linear peptides of protein N of SARS-CoV Urbani (Rabbit serum linear peptides) [2]	Binding of a rabbit serum to looped/cyclic peptides of protein N of SARS-CoV Urbani (Rabbit serum looped peptides) [2]	Binding of serum 1a to linear peptides of protein N of SARS-CoV Urbani [3]	Binding of serum 1a to looped/cyclic peptides of protein N of SARS-CoV Urbani [3]	Binding of serum 1b to linear peptides of protein N of SARS-CoV Urbani [3]	Binding of serum 1b to looped/cyclic peptides of protein N of SARS-CoV Urbani [3]	Binding of serum 2 to linear peptides of protein N of SARS-CoV Urbani [3]	Binding of serum 2 to looped/cyclic peptides of protein N of SARS-CoV Urbani [3]	Binding of serum 6 to linear peptides of protein N of SARS-CoV Urbani [3]	Binding of serum 6 to looped/cyclic peptides of protein N of SARS-CoV Urbani [3]	Binding of serum 37 to linear peptides of protein N of SARS-CoV Urbani [3]	Binding of serum 37 to looped/cyclic peptides of protein N of SARS-CoV Urbani [3]	Binding of serum 62 to linear peptides of protein N of SARS-CoV Urbani [3]	Binding of serum 62 to looped/cyclic peptides of protein N of SARS-CoV Urbani [3]	Binding of serum London to linear peptides of protein N of SARS-CoV Urbani [3]	Binding of serum London to looped/cyclic peptides of protein N of SARS-CoV Urbani [3]	Binding of serum SARS-green to looped/cyclic peptides of protein N of SARS-CoV Urbani [3]	Binding of serum SARS-yellow to looped/cyclic peptides of protein N of SARS-CoV Urbani [3]	also measured
WPQIAQFAPSASAFF	0.1	0.3	0.1	0.6	0.2	0.5	0.1	0.3	0.1	0.5	0.2	0.3	0.6	0.8	0.5	0.9	0.5	0.5	0.5	0.6	Binding of serum SARS-green to linear peptides of protein N of SARS-CoV Urbani [3]: 0.3; Binding of serum SARS-yellow to linear peptides of protein N of SARS-CoV Urbani [3]: 0.7; Control Serum Blood-Bank Looped peptides [4]: 0.8; Control serum Blood-bank linear peptides [4]: 0.6; Control serum LUMC linear peptides [4]: 0.6; Control serum LUMC looped peptides [4]: 0.9
WVATEGALNTPKDHI	0.1	0.2	0.1	0.2	0.2	0.3	0.1	0.2	0.3	0.3	0.2	0.2	0.7	0.5	0.9	0.4	0.6	0.4	0.4	0.2	Binding of serum SARS-green to linear peptides of protein N of SARS-CoV Urbani [3]: 0.6; Binding of serum SARS-yellow to linear peptides of protein N of SARS-CoV Urbani [3]: 0.6; Binding of Control Serum Blood-Bank to Looped peptides [4]: 0.5; Binding of Control serum Blood-bank to linear peptides [4]: 0.8; Binding of Control serum LUMC to linear peptides [4]: 0.9; Binding of Control serum LUMC to looped peptides [4]: 0.5
YAEGSRGGSQASSRS	0.1	0.2	0.2	0.0		0.3		0.2		0.3		0.2		0.4		0.2		0.3	0.3	0.1	Binding of serum 1a to linear peptide (PEPSCAN-ELISA) [3]: 0.3; Binding of serum 1b to linear peptide (PEPSCAN-ELISA) [3]: 0.1; Binding of serum 2 to linear peptide (PEPSCAN-ELISA) [3]: 0.3; Binding of serum 6 to linear peptide (PEPSCAN-ELISA) [3]: 0.4; Binding of serum 37 to linear peptide (PEPSCAN-ELISA) [3]: 0.7; Binding of serum 62 to linear peptide (PEPSCAN-ELISA) [3]: 0.7; Binding of serum London to linear peptide (PEPSCAN-ELISA) [3]: 0.5; Binding of serum SARS-green to linear peptide (PEPSCAN-ELISA) [3]: 0.6; Binding of serum SARS-yellow to linear peptide (PEPSCAN-ELISA) [3]: 0.6; Binding of Control Serum Blood-Bank to Looped peptides [4]: 0.4; Binding of Control serum Blood-bank to linear peptides [4]: 0.9; Binding of Control serum LUMC to linear peptides [4]: 0.7; Binding of Control serum LUMC to looped peptides [4]: 0.6
